Source: PMC6445163, “Design, synthesis, and evaluation of novel 2-phenylpropionic acid derivatives as dual COX inhibitory-antibacterial agents” (Journal of Enzyme Inhibition and Medicinal Chemistry, 2017)
Read-outs that look alike come from different tables or passages of the source. Marks after values point to notes of the source that are not given here.

Legend:
[1] = tested on: Salmonella typhimurium TA98 (frameshift mutations); type: cell-based; conditions: for mutagenicity classification against TA98: presence/absence of metabolic activation (S9)
Procedure: (§1) Salmonella typhimurium strains, TA98 (frameshift mutations) and TA100 (base-pair substitutions), are used in this assay. Concentration range of the compounds was between […] and 5000 µg/mL according to the previous guidelines. Compounds were prepared in six different concentrations (5, 2.5, 1.25, 0.625, 0.3125 and 0.156 mg/mL) in DMSO. Mutagenic potential was determined in absence and presence of Aroclor™-1254 induced male Sprague–Dawley rat liver microsomal enzyme (S9) mix (Xenometrix AG, Switzerland). Positive controls without S9 mix were 2-Nitrofluorene (2 µg/mL) and 4-nitroquinoline N-oxide (0.1 µg/mL) whereas 1 and 2.5 µg/mL of 2-aminoanthracene solutions were used as positive controls with S9 against TA 98 and TA100, respectively. Solvent control was prepared with 4% DMSO. At the end of the experiment, revertant bacteria dropped the pH of solution and indicator medium color was changed to yellow. Yellow wells were counted as positive and compared with the negative control. Fold induction over the negative control and fold induction over the baseline were calculated. Fold induction over the negative control is the ratio of the mean number of positive wells for the dose concentration divided by the mean number of positive wells for the zero dose (negative) control. Fold induction over the baseline is the ratio of the mean number of positive wells for the dose concentration divided by zero dose baseline. The zero dose baseline is obtained by adding one standard deviation to the mean number of positive wells of the zero dose control. Mutagenicity was determined according to the criteria from previous studies[52]^,[56]. For a value ≤3 and significant increases between two and three-fold the baselines were classified as a weak mutagen, and increases ≥ three-fold the baselines were classified as a mutagen. […] As a rule, at least two adjacent doses with significant increases or a significant increase at the highest dose level should be observed for a mutagenic compound. All doses were compared according to Student’s t-test at p < .05 for statistical significance.
(§2) Ames assay was performed to investigate the genotoxicity of compounds 6h and 6l.

[2] = tested on: Salmonella typhimurium TA100 (base-pair substitutions); experiment: Ames MPF mutagenicity assay, TA100; type: cell-based; conditions: for mutagenicity classification against TA100: presence or absence of metabolic activation (S9)
Procedure: as §1, §2

[3] = tested on: NIH/3T3 mouse embryonic fibroblast cell line; experiment: MTT cytotoxicity test
Procedure: (§3) NIH/3T3 cells were incubated according to the supplier’s recommendations. NIH/3T3 cells were seeded at 1 × 10^4 cells into each well of 96-well plates. MTT assay was performed as previously described[51]^,[52].
(§4) There are a number of requirements to be fulfilled for successful new drug development. […] This assay is based upon the reduction of yellow MTT dye by metabolically active eukaryotic and prokaryotic cells to form the purple formazan product. The assay is generally used to examine cell viability and to estimate cell culture growth[66]^,[67].

MTT cytotoxicity test = conditions: mouse, NIH/3T3 mouse embryonic fibroblast cells
Procedure: as §3, §4

COX-1 [4] = target: T1, COX-1 (Ovis aries, UniProt P05979); experiment: enzyme kinetics (Lineweaver-Burk), arachidonic acid substrate; type: biochemical; conditions: for mode of inhibition: Lineweaver-Burk plot analysis; for Ki: secondary plot of slope versus inhibitor concentration, read-out: Ki (steady-state inhibition constant)
T1 construct: purchased Biovision K548-100
T1 sequence (P05979 25-600): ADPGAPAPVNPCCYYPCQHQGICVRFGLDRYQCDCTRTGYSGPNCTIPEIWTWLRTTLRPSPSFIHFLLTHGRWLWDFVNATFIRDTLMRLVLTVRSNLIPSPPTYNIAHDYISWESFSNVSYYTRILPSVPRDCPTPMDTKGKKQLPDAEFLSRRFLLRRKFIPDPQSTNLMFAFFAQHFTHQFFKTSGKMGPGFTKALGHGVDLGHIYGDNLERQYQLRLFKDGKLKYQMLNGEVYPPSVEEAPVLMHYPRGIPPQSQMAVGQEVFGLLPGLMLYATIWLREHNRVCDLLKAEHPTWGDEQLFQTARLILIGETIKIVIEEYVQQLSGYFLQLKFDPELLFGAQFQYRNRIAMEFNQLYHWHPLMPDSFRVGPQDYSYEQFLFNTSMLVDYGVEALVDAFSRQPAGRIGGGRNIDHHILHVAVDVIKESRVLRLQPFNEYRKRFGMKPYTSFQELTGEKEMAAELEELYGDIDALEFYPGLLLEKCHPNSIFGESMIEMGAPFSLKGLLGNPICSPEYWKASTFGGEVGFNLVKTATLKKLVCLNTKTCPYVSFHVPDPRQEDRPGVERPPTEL
Procedure: The mode of inhibition was determined by following the Lineweaver–Burk double reciprocal plot analysis of the data and calculated as per the Michaelis–Menten kinetics. To understand the possible mode of action, Km and Vmax were also calculated. The slopes of the Lineweaver–Burk plots were plotted versus the inhibitor concentration, and the Ki values were determined from the x-axis intercept as inhibition constant − Ki. […] The kinetic parameters of this study were determined based on Michaelis–Menten equation followed by a Lineweaver–Burk double reciprocal analysis of data set regarding […] versus 1/[S] plot.

COX-1 [5] = target: T1, COX-1; experiment: fluorometric COX-1 inhibitor screening kit assay; type: biochemical; conditions: for SI (selectivity index): IC50 (COX-1)/IC50 (COX-2); for IC50: fluorometric kit, 25 °C; for Selectivity: isoform preferred according to SI
Procedure: Inhibitory potency of the compounds against COX-1 and COX-2 enzymes was determined using fluorometric COX-1 and COX-2 inhibitor screening kits (Biovision, Zurich, Switzerland). Experimental protocol was followed as described in the guides of the supplier[47]^,[48]. All of the pipettings in the assay were performed by Biotek Precision robotic system (BioTek Instruments, Inc., Winooski, VT). […] Appropriate two points (T1 and T2) in the linear range of the plot were chosen, and the corresponding fluorescence values (RFU1 and RFU2) were obtained. The slope for all samples, including enzyme control (EC), by dividing the net ΔRFU (RFU2–RFU1) values by the time ΔT (T2–T1) were calculated by using following equation: % Relative inhibition=(Slope of EC-Slope of S/Slope of EC)×100
This initial in vitro assay was done with two concentrations (10^−3 and 10^−4 M) for all compounds. […] The IC50 value was calculated from the plots of enzyme activity against concentrations by applying regression analyses on GraphPad Prism Version 5 (GraphPad Software, La Jolla, CA).
Selectivity indexes (SI) were expressed as IC50 (COX-1)/IC50 (COX-2). Selectivity toward COX-2 decreases as the corresponding SI decreases while selectivity toward COX-1 isoform increases as the corresponding SI decreases.

SMILES | Revertants fold increase (over baseline) TA 98 S9− ([1]; 0.156 mg/mL) | Revertants fold increase (over baseline) TA 98 S9+ ([1]; 0.3125 mg/mL) | Revertants fold increase (over baseline) TA 98 S9− ([1]; 0.3125 mg/mL) | Revertants fold increase (over baseline) TA 98 S9+ ([1]; 0.625 mg/mL) | Revertants fold increase (over baseline) TA 98 S9− ([1]; 0.625 mg/mL) | Revertants fold increase (over baseline) TA 98 S9+ ([1]; 1.25 mg/mL) | Revertants fold increase (over baseline) TA 98 S9− ([1]; 1.25 mg/mL) | Revertants fold increase (over baseline) TA 98 S9+ ([1]; 2.5 mg/mL) | Revertants fold increase (over baseline) TA 98 S9− ([1]; 2.5 mg/mL) | Revertants fold increase (over baseline) TA 98 S9+ ([1]; 5 mg/mL) | Revertants fold increase (over baseline) TA 98 S9− ([1]; 5 mg/mL) | mutagenicity classification against TA98 [1] | Revertants fold increase (over baseline) TA 100 S9+ ([2]; 0.156 mg/mL) | Revertants fold increase (over baseline) TA 100 S9+ ([2]; 0.3125 mg/mL) | Revertants fold increase (over baseline) TA 100 S9− ([2]; 0.3125 mg/mL) | Revertants fold increase (over baseline) TA 100 S9+ ([2]; 0.625 mg/mL) | Revertants fold increase (over baseline) TA 100 S9− ([2]; 0.625 mg/mL) | Revertants fold increase (over baseline) TA 100 S9+ ([2]; 1.25 mg/mL) | Revertants fold increase (over baseline) TA 100 S9− ([2]; 1.25 mg/mL) | Revertants fold increase (over baseline) TA 100 S9+ ([2]; 2.5 mg/mL) | other results
COc1ccc2sc(SCc3ccc(C(C)C(=O)O)cc3)nc2c1 (stereo not drawn) [Compound 6h, 2-(4-(((5-Methoxybenzo[d]thiazol-2-yl)thio)methyl)phenyl)propanoic acid] | 0.56 | 0.52 | 0.56 | 0.70 | 0.60 | 0.17 | 0.73 | 1.05 | 0.22^a | 0.87 | 0.17^a | non-mutagenic | 0.60 | 0.50 | 0.52 | 0.20 | 0.70 | 0.25 | 0.17 | 0.25 | Revertants fold increase (over baseline) TA 100 S9− ([2]; 2.5 mg/mL): 1.05; Revertants fold increase (over baseline) TA 100 S9+ ([2]; 5 mg/mL): 0.20; Revertants fold increase (over baseline) TA 100 S9− ([2]; 5 mg/mL): 0.87; mutagenicity classification against TA100 [2]: did not show any mutagenicity; fold by which IC50 against COX enzymes is lower than IC50 against NIH/3T3 cells [3]: about 500 fold; IC50 (MTT cytotoxicity test): ≥ 1000 µM; Vmax value of the competitive inhibition (COX-1 [4]): 0.830 ± 0.011 nmol/min/mg protein; mode of inhibition (COX-1 [4]): competitive; Ki (COX-1 [4]): 2.07 µM; SI (selectivity index) (COX-1 [5]): 0.59; IC50 (COX-1 [5]): 1.76 µM; Selectivity (COX-1 [5]): COX-1
COc1ccc2[nH]c(SCc3ccc(C(C)C(=O)O)cc3)nc2c1 (stereo not drawn) [Compound 6l, 2-(4-(((5-Methoxy-1H-benzo[d]imidazol-2-yl)thio)methyl)phenyl)propanoic acid] | 0.57 | 0.50 | 0.31^a | 0.75 | 0.61 | 0.08^a | 0.04a | 0.00^a | 0.00^a | 0.00^a | 0.04^a | non-mutagenic | 0.74 | 0.52 | 0.27^a | 0.52 | 0.13^a | 0.00^a | 0.13^a | 0.00^a | Revertants fold increase (over baseline) TA 98 S9+ ([1]; 0.156 mg/mL): 0.17^a; Revertants fold increase (over baseline) TA 100 S9− ([2]; 0.156 mg/mL): 0.53a; Revertants fold increase (over baseline) TA 100 S9− ([2]; 2.5 mg/mL): 0.20^a; Revertants fold increase (over baseline) TA 100 S9+ ([2]; 5 mg/mL): 0.00^a; Revertants fold increase (over baseline) TA 100 S9− ([2]; 5 mg/mL): 0.00^a; mutagenicity classification against TA100 [2]: non-mutagenic; fold by which IC50 against COX enzymes is lower than IC50 against NIH/3T3 cells [3]: about 500 fold; IC50 (MTT cytotoxicity test): ≥ 1000 µM; Vmax value of the competitive inhibition (COX-1 [4]): 0.669 ± 0.003 nmol/min/mg protein; mode of inhibition (COX-1 [4]): competitive; Ki (COX-1 [4]): 1.7 µM; SI (selectivity index) (COX-1 [5]): 0.60; IC50 (COX-1 [5]): 1.4 µM; Selectivity (COX-1 [5]): COX-1
